Columns and labels:
T-47D = format: cell-based; conditions: one dose 10^-5 M, 48 h
OVCAR-8 = format: cell-based; conditions: one dose 10^-5 M, 48 h
RPMI-8226 = format: cell-based; conditions: one dose 10^-5 M, 48 h
COLO 205 = format: cell-based; conditions: one dose 10^-5 M, 48 h
786-0 = format: cell-based; conditions: one dose 10^-5 M, 48 h
SR = format: cell-based; conditions: one dose 10^-5 M, 48 h
SK-MEL-5 = format: cell-based; conditions: one dose 10^-5 M, 48 h
A549/ATCC = format: cell-based; conditions: one dose 10^-5 M, 48 h
CCRF-CEM = format: cell-based; conditions: one dose 10^-5 M, 48 h
HOP-62 = format: cell-based; conditions: one dose 10^-5 M, 48 h
OVCAR-3 = format: cell-based; conditions: one dose 10^-5 M, 48 h
PC-3 = format: cell-based; conditions: one dose 10^-5 M, 48 h
HT29 = format: cell-based; conditions: 48 h
SNB-19 = format: cell-based; conditions: one dose 10^-5 M, 48 h
M14 = format: cell-based; conditions: one dose 10^-5 M, 48 h
ACHN = format: cell-based; conditions: one dose 10^-5 M, 48 h
KM12 = format: cell-based; conditions: one dose 10^-5 M, 48 h
SK-MEL-2 = format: cell-based; conditions: one dose 10^-5 M, 48 h
NCI-H226 = format: cell-based; conditions: one dose 10^-5 M, 48 h
MDA-MB-468 = format: cell-based; conditions: one dose 10^-5 M, 48 h
UO-31 = format: cell-based; conditions: one dose 10^-5 M, 48 h
IGROV1 = format: cell-based; conditions: 48 h
SNB-75 = format: cell-based; conditions: one dose 10^-5 M, 48 h
MDA-MB-435 = format: cell-based; conditions: one dose 10^-5 M, 48 h
HS 578T = format: cell-based; conditions: one dose 10^-5 M, 48 h, HS 578T
MOLT-4 = format: cell-based; conditions: one dose 10^-5 M, 48 h
A498 = format: cell-based; conditions: one dose 10^-5 M, 48 h
MDA-MB-231/ATCC = format: cell-based; conditions: one dose 10^-5 M, 48 h
HL-60(TB) = format: cell-based; conditions: one dose 10^-5 M, 48 h
UACC-257 = format: cell-based; conditions: one dose 10^-5 M, 48 h
SF-539 = format: cell-based; conditions: one dose 10^-5 M, 48 h
OVCAR-4 = format: cell-based; conditions: one dose 10^-5 M, 48 h
MALME-3M = format: cell-based; conditions: one dose 10^-5 M, 48 h
SK-OV-3 = format: cell-based; conditions: one dose 10^-5 M, 48 h
UACC-62 = format: cell-based; conditions: one dose 10^-5 M, 48 h
SF-295 = format: cell-based; conditions: one dose 10^-5 M, 48 h
NCI-H460 = format: cell-based; conditions: one dose 10^-5 M, 48 h
HOP-92 = format: cell-based; conditions: one dose 10^-5 M, 48 h
SW-620 = format: cell-based; conditions: one dose 10^-5 M, 48 h
BT-549 = format: cell-based; conditions: one dose 10^-5 M, 48 h
NCI/ADR-RES = format: cell-based; conditions: one dose 10^-5 M, 48 h
CAKI-1 = format: cell-based; conditions: one dose 10^-5 M, 48 h
HCC-2998 = format: cell-based; conditions: one dose 10^-5 M, 48 h
SF-268 = format: cell-based; conditions: one dose 10^-5 M, 48 h
DU-145 = format: cell-based; conditions: one dose 10^-5 M, 48 h
TK-10 = format: cell-based; conditions: one dose 10^-5 M, 48 h
MCF7 = format: cell-based; conditions: one dose 10^-5 M, 48 h
NCI-H23 = format: cell-based; conditions: one dose 10^-5 M, 48 h
SN12C = format: cell-based, human; conditions: one dose 10^-5 M, 48 h
[1] = test system: full NCI 60 cell lines panel; conditions: for activity on all 60 cancer cell lines tested (in words): one dose
HCT-15 = format: cell-based; conditions: one dose 10^-5 M, 48 h
SK-MEL-28 = format: cell-based; conditions: one dose 10^-5 M, 48 h
K-562 = format: cell-based; conditions: 48 h
HCT-116 = format: cell-based; conditions: one dose 10^-5 M, 48 h
EKVX = format: cell-based; conditions: one dose 10^-5 M, 48 h
OVCAR-5 = format: cell-based; conditions: one dose 10^-5 M, 48 h
LOX IMVI = format: cell-based; conditions: one dose 10^-5 M, 48 h
NCI-H522 = format: cell-based; conditions: one dose 10^-5 M, 48 h
U251 = format: cell-based; conditions: 48 h
[2] = Homo sapiens, read-out: % growth

In the case of “4-Amino-6-[4-(dimethylamino)phenyl]-2-mercaptopyrimidine-5-carboximidohydrazide [Compound 2a]”, the “% growth” value (T-47D) is reported as 99.52%, the “% growth” value (OVCAR-8) is reported as 116.82% and the “% growth” value (RPMI-8226) is reported as 98.02%. For the same compound, the “% growth” value (COLO 205) was 134.76%, the “% growth” value (786-0) was 105.86% and the “% growth” value (SR) was 102.70%. The “% growth” value (SK-MEL-5) was 104.41%, the “% growth” value (A549/ATCC) was 107.34% and the “% growth” value (CCRF-CEM) was 91.59%. The “% growth” value (HOP-62) was 107.78%, the “% growth” value (OVCAR-3) was 105.79% and the “% growth” value (PC-3) was 87.24%. The “% growth” value (HT29; one dose 10^-5 M) was 107.55%, the “% growth” value (SNB-19) was 101.46% and the “% growth” value (M14) was 103.05%. The “% growth” value (ACHN) was 99.26%, the “% growth” value (KM12) was 103.89% and the “% growth” value (SK-MEL-2) was 117.18%. For the same compound, the “% growth” value (NCI-H226) was 96.50%, the “% growth” value (MDA-MB-468) was 117.68% and the “% growth” value (UO-31) was 69.66%. For the same compound, the “% growth” value (IGROV1; one dose 10^-5 M) was 109.01%, the “% growth” value (SNB-75) was 115.82% and the “% growth” value (MDA-MB-435) was 114.53%. For the same compound, the “% growth” value (HS 578T) was 111.82%, the “% growth” value (MOLT-4) was 109.54% and the “% growth” value (A498) was 129.90%. The “% growth” value (MDA-MB-231/ATCC) was 103.57%, the “% growth” value (HL-60(TB)) was 99.62% and the “% growth” value (UACC-257) was 109.40%. For the same compound, the “% growth” value (SF-539) was 107.89%, the “% growth” value (OVCAR-4) was 96.78% and the “% growth” value (MALME-3M) was 100.97%. The “% growth” value (SK-OV-3) was 120.70%, the “% growth” value (UACC-62) was 96.91% and the “% growth” value (SF-295) was 112.06%. The “% growth” value (NCI-H460) was 102.69%, the “% growth” value (HOP-92) was 114.12% and the “% growth” value (SW-620) was 105.68%. For the same compound, the “% growth” value (BT-549) was 106.15%, the “% growth” value (NCI/ADR-RES) was 104.56% and the “% growth” value (CAKI-1) was 93.33%. For the same compound, the “% growth” value (HCC-2998) was 114.82%, the “% growth” value (SF-268) was 101.57% and the “% growth” value (DU-145) was 111.10%. The “% growth” value (TK-10) was 112.54%, the “% growth” value (MCF7) was 86.35% and the “% growth” value (NCI-H23) was 104.78%. The “% growth” value (SN12C) was 106.67%, the “activity on all 60 cancer cell lines tested (in words)” value [1] was “weak activity” and the Mean % growth ([1]; one dose 10^-5 M, 48 h, mean over all cell lines) was 105.50%. For the same compound, the “% growth” value (HCT-15) was 103.47%, the “% growth” value (SK-MEL-28) was 108.97% and the “% growth” value (K-562; one dose 10^-5 M) was 103.46%. The “% growth” value (HCT-116) was 103.97%, the “% growth” value (EKVX) was 95.76% and the “% growth” value (OVCAR-5) was 116.97%. For the same compound, the “% growth” value (LOX IMVI) was 101.99%, the “% growth” value (NCI-H522) was 100.34% and the “% growth” value (U251; one dose 10^-5 M) was 106.99%.

For CN(C)c1ccc(-c2nc(S)nc(N)c2C#N)cc1 [Compound 1a], the activity at 10 µM (T-47D; Homo sapiens, T47D, read-out: % growth) was 75.6%, the % growth of cells at 10 µM (OVCAR-8; Homo sapiens) was 103% and the % growth at 10 µM (RPMI-8226; Homo sapiens) was 80.5%. For the same compound, the % growth at 10 µM (COLO 205; Homo sapiens) was 123%, the % growth at 10 µM (786-0; Homo sapiens) was 87.9% and the percent cell growth at 10 µM (SR; Homo sapiens) was 83%. For the same compound, the activity at 10 µM (SK-MEL-5; [2]) was 88.7%, the % growth at 10 µM (A549/ATCC; Homo sapiens) was 96.5% and the % cell growth at 10 µM (CCRF-CEM; Homo sapiens) was 90.9%. It also gave a % growth at 10 µM (HOP-62; Homo sapiens) of 117%, a % growth at 10 µM (OVCAR-3; Homo sapiens) of 94.4% and a percent cell growth at 10 µM (PC-3; Homo sapiens) of 87.8%. For the same compound, the % growth at 10 µM (HT29; Homo sapiens, HT-29, one dose 10^-5 M) was 109%, the activity at 10 µM (SNB-19; [2]) was 89.9% and the % growth at 10 µM (M14; Homo sapiens) was 102%. The % growth at 10 µM (ACHN; Homo sapiens) was 98%, the % growth at 10 µM (KM12; Homo sapiens) was 92.3% and the % growth at 10 µM (SK-MEL-2; Homo sapiens) was 107%. For the same compound, the % growth at 10 µM (NCI-H226; Homo sapiens) was 96%, the percent cell growth at 10 µM (MDA-MB-468; Homo sapiens) was 60.2% and the % cell growth at 10 µM (UO-31; Homo sapiens, UO-31, 48 h) was 83.8%. For the same compound, the activity at 10 µM (IGROV1; Homo sapiens, IGROV-1, one dose 10^-5 M, read-out: % growth) was 100%, the % growth at 10 µM (SNB-75; Homo sapiens) was 107% and the activity at 10 µM (MDA-MB-435; [2]) was 103%. The activity at 10 µM (HS 578T; [2]) was 100%, the activity at 10 µM (MOLT-4; [2]) was 92.6% and the % growth at 10 µM (A498; Homo sapiens) was 131%. For the same compound, the % growth at 10 µM (MDA-MB-231/ATCC; Homo sapiens) was 96%, the % growth at 10 µM (HL-60(TB); Homo sapiens) was 94% and the percent cell growth at 10 µM (UACC-257; Homo sapiens) was 102%. For the same compound, the % growth at 10 µM (SF-539; Homo sapiens) was 98.4%, the % growth at 10 µM (OVCAR-4; Homo sapiens) was 101% and the % growth at 10 µM (MALME-3M; Homo sapiens) was 106%. For the same compound, the % growth at 10 µM (SK-OV-3; Homo sapiens) was 121%, the % growth at 10 µM (UACC-62; Homo sapiens) was 77.2% and the % cell growth at 10 µM (SF-295; Homo sapiens) was 103%. For the same compound, the activity at 10 µM (NCI-H460; [2]) was 113%, the % growth at 10 µM (HOP-92; Homo sapiens) was 94% and the % growth at 10 µM (SW-620; Homo sapiens) was 113%. The % cell growth at 10 µM (BT-549; Homo sapiens) was 85.4%, the cell growth percent at 10 µM (NCI/ADR-RES; Homo sapiens) was 91.2% and the % growth at 10 µM (CAKI-1; Homo sapiens, CAKI-1, 48 h) was 92.4%. The % growth at 10 µM (HCC-2998; Homo sapiens) was 105%, the activity at 10 µM (SF-268; [2]) was 104% and the % growth at 10 µM (DU-145; Homo sapiens) was 102%. It also gave a % cell growth at 10 µM (TK-10; Homo sapiens) of 111%, an activity at 10 µM (MCF7; [2]) of 80.4% and an activity at 10 µM (NCI-H23; [2]) of 95%. For the same compound, the % growth at 10 µM (SN12C; Homo sapiens) was 90.7%, the activity at 10 µM ([1]; Homo sapiens, 60 cell, 48 h, read-out: Mean % growth) was 96.6% and the “activity on all 60 cancer cell lines tested (in words)” value [1] was “weak activity”. The activity at 10 µM (HCT-15; [2]) was 86.4%, the % cell growth at 10 µM (SK-MEL-28; Homo sapiens) was 103% and the % growth at 10 µM (K-562; Homo sapiens, K562, one dose 10^-5 M) was 89.8%. For the same compound, the activity at 10 µM (HCT-116; [2]) was 91.9%, the % cell growth at 10 µM (EKVX; Homo sapiens) was 87.9% and the percent cell growth at 10 µM (OVCAR-5; Homo sapiens) was 108%. For the same compound, the activity at 10 µM (LOX IMVI; [2]) was 85.6%, the % growth at 10 µM (NCI-H522; Homo sapiens) was 79.7% and the % growth at 10 µM (U251; Homo sapiens, U-251, one dose 10^-5 M) was 90.6%.
